Values after ≈ are worked out from the molar mass of the structure shown. Read-outs that look alike come from different tables or passages of the source. Marks after values point to notes of the source that are not given here.
How the values were obtained:
M. smegmatis ΔEM-pMbtAtb [1] = experiment: microbe, parasite or virus in culture; type: cell-based, Mycobacterium smegmatis; settings: for MIC (μg/ml), mean / MIC (μg/ml), range: GASTD medium, three independent experiments
M. tuberculosis H37Rv = experiment: Growth inhibition assay (Alamar Blue MIC) for M. tuberculosis H37Rv; type: cell-based, Mycobacterium tuberculosis; settings: at least 90% inhibition, 7 days
Msm WT = experiment: Growth inhibition microdilution assay, Msm WT; type: cell-based, Mycobacterium smegmatis
Msm ΔEM = type: cell-based, Mycobacterium smegmatis; settings: GASTD + Fe medium
MbtAtb = MbtAtb (Mycobacterium tuberculosis (strain ATCC 25618 / H37Rv), UniProt P71716); settings: cited from earlier work
Chain of MbtAtb (P71716 whole entry, looked up): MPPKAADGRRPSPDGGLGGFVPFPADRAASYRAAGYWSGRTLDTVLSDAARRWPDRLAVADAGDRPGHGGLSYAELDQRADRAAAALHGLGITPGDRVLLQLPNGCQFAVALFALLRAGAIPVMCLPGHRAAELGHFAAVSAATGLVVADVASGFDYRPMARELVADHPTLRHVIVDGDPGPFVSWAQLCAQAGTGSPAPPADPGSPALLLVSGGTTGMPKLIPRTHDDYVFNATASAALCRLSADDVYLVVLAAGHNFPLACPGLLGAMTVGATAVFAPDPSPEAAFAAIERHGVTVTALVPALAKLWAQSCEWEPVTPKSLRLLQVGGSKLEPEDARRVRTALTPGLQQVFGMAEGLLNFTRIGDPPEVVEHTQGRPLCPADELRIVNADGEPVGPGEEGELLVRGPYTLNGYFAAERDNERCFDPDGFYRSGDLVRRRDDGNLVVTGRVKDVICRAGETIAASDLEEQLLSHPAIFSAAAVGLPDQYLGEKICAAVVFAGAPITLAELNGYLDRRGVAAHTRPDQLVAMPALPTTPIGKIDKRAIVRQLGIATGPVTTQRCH

Msm ΔE = type: cell-based, Mycobacterium smegmatis
mammalian cells = settings: cited from earlier work
Mtb = settings: cited from earlier work
[2] = system: MBT production in Msm ΔEM-pMbtAtb; type: cell-based, Mycobacterium smegmatis; settings: FIG. 7, radio-TLC
Msm ΔM = type: cell-based, Mycobacterium smegmatis
M. smegmatis ΔEM-pMbtAtb [3] = experiment: Post-antibiotic effect (PAE) washout assay
Protocol: Cells from mid-log growth phase cultures of Msm ΔEM-pMbtAtb in GASTD medium (37° C., 170 rpm, OD600≈0.75) were harvested by centrifugation and washed in GASTD medium (3 times with I culture volume). The washed cells were resuspended in GASTD medium and transferred to U-bottom 96-well cell culture plates (Corning, Inc.) for inhibitor exposure at a cell density corresponding to OD600=1.0 (50 μL/well). […] Inhibitors were added from 10% DMSO stock solutions, with a final DMSO concentration of 1% in both inhibitor-exposed cultures and DMSO controls (no inhibitor). […] The 96-well plates were incubated for culture growth at 37° C. in a FLUOstar Optima microplate reader (BMG Labtech, Inc.), and OD600 readings were taken every 30 min following plate shaking (5 min, 200 rpm) for 5 days. The growth vs. time datasets were analyzed to determine the time at which cultures reached an exponential growth phase threshold of OD600=0.05 (≈5% of maximal growth) (FIG. 8). The time-to-threshold data were used to calculate PAE as the difference between the time-to-threshold values of the inhibitor-exposed culture and the control cultures (Stubbings, W. J., et al. (2004) J. Antimicrob. Chemother. 54, 139-143). Data presented are derived from three independent experiments.

H10MbtA^opt (MbtAtb) [4] = molecular target: T1, H10MbtA^opt (MbtAtb) (Mycobacterium tuberculosis (strain ATCC 25618 / H37Rv), UniProt P71716); experiment: Progress curve analysis of H10MbtA^opt inhibition (HA-MesG assay); type: biochemical
T1 sequence (P71716 whole entry, added parts left off): as the sequence (P71716 whole entry, looked up) above

PPT/PNP coupling system = experiment: Off-target control: effect on PPT/PNP coupling system of the HA-MesG assay; type: biochemical
Protocol: The adenylation activity of H10MbtA^opt and its inhibition were evaluated using a H10MbtA^opt-optimized variation of the hydroxylamine-7-methyl-6-thioguanosine (HA-MesG) spectrophotometric assay (Wilson, D. J., et al. (2010) Anal. Biochem. 404, 56-63). The assay was carried out in a 96-well plate format as previously reported (Davis, T. D., et al. (2016) Bioorg. Med. Chem. Lett. 26, 5340-5345). The assay reaction mixture was optimized for H10MbtAopt activity. Optimization experiments included evaluation of various concentrations of Tris·HCl (and pH), hydroxylamine, MesG, ATP, NaCl, MgCl2, glycerol, reducing agents (DTT and TCEP), and detergent (IGEPAL, CHAPS, and Triton-X100). Unless otherwise indicated for specific experiments, the optimized assay reaction mixture contained the following: 50 mM Tris·HCl, pH 8.0; 3 mM MgCl2; 0.5 mM DTT; 0.1 U purine nucleoside phosphorylase (PNP); 0.04 U inorganic pyrophosphatase (PPT); 450 mM hydroxylamine; 0.4 mM MesG; 1 mM ATP; 300 μM salicylic acid; 0.01% CHAPS buffer; 7.5% ultrapure glycerol; and H10MbtA^opt at concentrations noted for specific experiments. […] Reactions were preincubated for 10 min at 25° C. before being initiated by the addition of either salicylic acid for steady state kinetic analysis or H10MbtA^opt for progress curve analysis. The phosphorolysis of MesG was measured continuously at either regular 1-min intervals (for steady state kinetic analysis) or 25-sec intervals (for progress curves analysis) for up to 45 min, at 360 nm and 25° C. in a DTX 880 multimode detector microplate reader (Beckman Coulter, Inc.).

H10MbtA^opt (MbtAtb) [5] = molecular target: T1, H10MbtA^opt (MbtAtb); experiment: biochemical
[6] = Table 8, GASTD + Fe medium, tested up to 64 μg/mL
[7] = Mycolicibacterium smegmatis, read-out: MIC (μg/ml), mean
[8] = IC50 (nM), H10MbtA^opt at 250 nM, two independent dose-response experiments
[9] = IC50, preliminary dose-response experiment (vi/vo vs. log[inhibitor]), FIG. 4A-C, single experiment, inhibition of H10MbtA^opt

Molecule | MIC (M. smegmatis ΔEM-pMbtAtb [1]; [6]) [µg/mL] | MIC (μg/ml), mean (M. smegmatis ΔEM-pMbtAtb [1]; Table 8) [µg/mL] | MIC (μg/ml), range (M. smegmatis ΔEM-pMbtAtb [1]; Table 8) | PAE (M. smegmatis ΔEM-pMbtAtb [3]; 1 h exposure at 5 × MIC) [h] | PAE (M. smegmatis ΔEM-pMbtAtb [3]; 1 h exposure at 50 × MIC) [h] | PAE (M. smegmatis ΔEM-pMbtAtb [3]; 1 h exposure at 100 × MIC) [h] | Fractional velocity v1/v0 (PPT/PNP coupling system; [inhibitor] = 4 μM) | Fractional velocity v1/v0 (PPT/PNP coupling system; [inhibitor] = 40 µM) | Ki (H10MbtA^opt (MbtAtb) [4]) [µM] | MIC (M. smegmatis ΔEM-pMbtAtb [1]; [7]) [µg/mL] | IC50 (H10MbtA^opt (MbtAtb) [5]; [8]) [nM] | IC50 (H10MbtA^opt (MbtAtb) [5]; [9]) [nM] | further results
5′-O—[N-salicylsulfamoyl]adenosine [compound 1] | >64 | 0.83 ± 8.17 | 0.5-1.0^b μg/ml | 9.4 ± 1.6 | 14.2 ± 0.9 | 34.5 ± 1.8 | – | – | – | – | – | – | MIC (M. smegmatis ΔEM-pMbtAtb [1]; Table 7, Msm ΔEM-pMbtAtb (−/+), GASTD + Fe medium): >1000 µg/mL; MIC (M. smegmatis ΔEM-pMbtAtb [1]; Table 7, Msm ΔEM-pMbtAtb (−/+), GASTD medium (Fe-limiting)): 0.5 to 1.0 µg/mL; MIC (M. tuberculosis H37Rv; GAST-D + Fe medium (100 μM FeCl3)): 0.5 to 1.0 µg/mL; MIC (M. tuberculosis H37Rv; GAST-D medium): 0.125 to 0.25 µg/mL; MIC (Msm WT; GASTD + Fe medium): >1000 µg/mL; MIC (Msm WT; GASTD medium (Fe-limiting)): >1000 µg/mL; MIC (Msm ΔEM): >1000 µg/mL; Inhibition of MbtAtb (previous in vitro studies) (MbtAtb): potent, selective, tight-binding inhibitor; MIC (Msm ΔE; GASTD + Fe medium): >1000 µg/mL; MIC (Msm ΔE; GASTD medium (Fe-limiting)): 0.5 to 1.0 µg/mL; Cytotoxicity against mammalian cells (mammalian cells): not cytotoxic; Mtb growth in the mouse lung (Mtb; monotherapy at 5.6 or 16.7 mg/kg): significant reduction of Mtb growth in the mouse lung; Dose at which in vivo toxicity was observed (Mtb; mouse): ≥ 16.7 mg/kg; Effect on MBT production [2]: inhibited MBT production; MIC (Msm ΔM; GASTD + Fe medium): >1000 µg/mL; MIC (Msm ΔM; GASTD medium (Fe-limiting)): >1000 µg/mL
Nc1ncnc2c1ncn2[C@@H]1OC(CNS(=O)(=O)NC(=O)c2ccccc2O)[C@@H](O)[C@H]1O (some centres unmarked) [4a, salicyl-AMSN] | >64 | 1.00 ± 0 (≈ 2.15 µM) | 1.0 µg/mL (≈ 2.15 µM) | 10.6 ± 2.7 | 18.7 ± 1.3 | 23.1 ± 3.1 | 0.94 | 0.96 | – | – | – | – | Ki (H10MbtA^opt (MbtAtb) [4]; H10MbtA^opt 1 μM, inhibitor 4,000-1,041 nM, minimum of five independent experiments, read-out: Ki^app): 0.295 ± 0.0239 µM; IC50 (H10MbtA^opt (MbtAtb) [5]; H10MbtA^opt at 250 nM, two independent dose-response experiments, read-out: IC50): 246 ± 2.9 nM
CN(C[C@H]1O[C@@H](n2cnc3c(N)ncnc32)[C@H](O)[C@@H]1O)S(=O)(=O)NC(=O)c1ccccc1O [4b, N—(N-(((2R,3S,4R,5R)-5-(6-Amino-9H-purin-9-yl)-3,4-dihydroxytetrahydrofuran-2-yl)-methyl)-N-methylsulfamoyl)-2-hydroxybenzamide] | – | – | 0.5 to 1.0 µg/mL | 13.4 ± 2.6 | 17.4 ± 4.7 | 10.4 ± 2.2 | – | – | 0.159 ± 0.0081 | 0.83 ± 0.17 (≈ 1.73 µM) | 175 ± 4.3 | 179 | –
COc1ncnc2c1ncn2[C@@H]1O[C@H](CNS(=O)(=O)NC(=O)c2ccccc2O)[C@@H](O)[C@H]1O [compound 6, N—(N-(((2R,3S,4R,5R)-3,4-Dihydroxy-5-(6-methoxy-9H-purin-9-yl)tetrahydrofuran-2-yl)methyl)sulfamoyl)-2-hydroxybenzamide] | >64 | – | 4.0 to 8.0 µg/mL | – | – | – | 1.00 | 1.00 | 0.277 ± 0.0122 | 5.33 ± 1.33 (≈ 11.1 µM) | 289 ± 16.4 | 273 | Mechanism of inhibition from progress curves (H10MbtA^opt (MbtAtb) [4]; time-dependent inhibition of H10MbtAopt): slow-onset inhibitors; MIC (M. tuberculosis H37Rv; Mycobacterium tuberculosis, H37RV, 168 h, GAST-D + Fe medium (100 μM FeCl3), read-out: MIC): 0.5 to 1 µg/mL; MIC (M. tuberculosis H37Rv; Mycobacterium tuberculosis, H37RV, 168 h, GAST-D medium, read-out: MIC): 0.125 to 0.25 µg/mL (≈ 0.26 to 0.52 µM); Inhibitor behavior (IC50≈½ [E]) (H10MbtA^opt (MbtAtb) [5]; HA-MesG assay): tight-binding inhibitor behavior
O=C(NS(=O)(=O)O)c1ccccc1O [compound 8, salicyl-sulfamate] | – | – | – | – | – | – | – | – | – | – | – | – | IC50 (H10MbtA^opt (MbtAtb) [5]; IC50 (mM), effect on the MbtAtb-dependent signal in the HA-MesG assay, salicyl-AMS fragments, nonspecific inhibition control): ~1e+06 nM
